Source: PMC8948939 (Pharmaceutics, 2022)

Tests used:
[1] = system: human liver microsomes (HLM); details: mean over voriconazole 0.5, 1, 2, 3 µM
[2] = system: CYP2C19 (loratadine), CYP2C9 (sulfaphenazole), CYP3A4 (ketoconazole); test: in vitro; details: human; for inhibition at 3 µM: pH 7.5; for activity: pH 7.5, % of Uninhibited Control (voriconazole N-oxidation velocity), HLM
[3] = substrate: C[C@@H](c1ncncc1F)[C@](O)(Cn1cncn1)c1ccc(F)cc1F; test: not read; details: other: N-oxidation of voriconazole

Row | Molecule | Mean (SD) % of Uninhibited Control [1] | inhibition at 3 µM [2] [%] | activity ([2]; voriconazole 0.5 µM) [%] | activity ([2]; voriconazole 1 µM) [%] | activity ([2]; voriconazole 2 µM) [%] | activity ([2]; voriconazole 3 µM) [%] | Km ([3]; rhCYP2C19, pH 7.5) | Km ([3]; rhCYP2C9, pH 7.5)
1 | CC(=O)N1CCN(c2ccc(OCC3COC(Cn4ccnc4)(c4ccc(Cl)cc4Cl)O3)cc2)CC1 (centres unmarked) [ketoconazole] | 52.4 (4.26) % | 47.6 | 49.8 | 48.4 | 53.6 | 57.9 | – | –
2 | Nc1ccc(S(=O)(=O)Nc2ccnn2-c2ccccc2)cc1 [sulfaphenazole] | 63.8 (2.69) % | 36.2 | 64.8 | 60.7 | 62.6 | 66.9 | – | –
3 | rhCYP2C19 (Homo sapiens) (protein) MDPFVVLVLCLSCLLLLSIWRQSSGRGKLPPGPTPLPVIGNILQIDIKDVSKSLTNLSKIYGPVFTLYFGLERMVVLHGYEVVKEALIDLGEEFSGRGHFPLAERANRGFGIVFSNGKRWKEIRRFSLMTLRNFGMGKRSIEDRVQEEARCLVEELRKTKASPCDPTFILGCAPCNVICSIIFQKRFDYKDQQFLNLMEKLNENIRIVSTPWIQICNNFPTIIDYFPGTHNKLLKNLAFMESDILEKVKEHQESMDINNPRDFIDCFLIKMEKEKQNQQSEFTIENLVITAADLLGAGTETTSTTLRYALLLLLKHPEVTAKVQEEIERVIGRNRSPCMQDRGHMPYTDAVVHEVQRYIDLIPTSLPHAVTCDVKFRNYLIPKGTTILTSLTSVLHDNKEFPNPEMFDPRHFLDEGGNFKKSNYFMPFSAGKRICVGEGLARMELFLFLTFILQNFNLKSLIDPKDLDTTPVVNGFASVPPFYQLCFIPV | – | – | – | – | – | – | 1.31 (0.862–1.75) µM | –
4 | rhCYP2C9 (Homo sapiens) (protein) MDSLVVLVLCLSCLLLLSLWRQSSGRGKLPPGPTPLPVIGNILQIGIKDISKSLTNLSKVYGPVFTLYFGLKPIVVLHGYEAVKEALIDLGEEFSGRGIFPLAERANRGFGIVFSNGKKWKEIRRFSLMTLRNFGMGKRSIEDRVQEEARCLVEELRKTKASPCDPTFILGCAPCNVICSIIFHKRFDYKDQQFLNLMEKLNENIKILSSPWIQICNNFSPIIDYFPGTHNKLLKNVAFMKSYILEKVKEHQESMDMNNPQDFIDCFLMKMEKEKHNQPSEFTIESLENTAVDLFGAGTETTSTTLRYALLLLLKHPEVTAKVQEEIERVIGRNRSPCMQDRSHMPYTDAVVHEVQRYIDLLPTSLPHAVTCDIKFRNYLIPKGTTILISLTSVLHDNKEFPNPEMFDPHHFLDEGGNFKKSKYFMPFSAGKRICVGEALAGMELFLFLTSILQNFNLKSLVDPKNLDTTPVVNGFASVPPFYQLCFIPV | – | – | – | – | – | – | – | 4.06 (3.32–4.81) µM
